The test system of assay [1] is Balb/c 3T3 (mouse fibroblasts). In words: MTT assay. The class given is cell-based. Particulars: BALB/c3T3, Balb/c 3T3, MTT, 72 h, M ± SD, n = 3. As for the experimental part:
(§1) DLD-1, HaCaT, and Balb/c 3T3 cells were maintained in DMEM, while HT-29 cells were grown in McCoy’s 5A medium with 10% FBS and 1% penicillin/streptomycin. All cell lines were incubated at 37 °C in a humidified atmosphere with 5% CO2. After detaching the cells with trypsin, they were quantified using a Scepter 3.0 automated cell counter (Millipore, Burlington, MA, USA).
(§2) The metabolic activity of cells exposed to the tested derivatives, doxorubicin, and DMSO, was assessed using an MTT assay according to the manufacturer’s protocol (Sigma-Aldrich, St. Louis, MO, USA). Adherent cells were seeded into 96-well plates (5000–10,000 cells in 100 µL of growth medium per well) and allowed to adhere overnight before treatment. For lymphocytes, activation with phytohemagglutinin-L (1 µg/mL) was performed for 24 h, after which they were seeded in 96-well plates at a density of 100,000 cells/well in RPMI-1640 medium supplemented with 20% FBS. The test substances, including Les-6547, Les-6557, and doxorubicin, were added to 100 µL of culture medium to achieve final concentrations of 0 µM, 0.1 µM, 1 µM, 2.5 µM, 10 µM, and 100 µM for all compounds, and the cells were further incubated for 24, 48, or 72 h. DMSO-treated cells served as the control. Then, 20 µL of MTT solution (5 mg/mL) was added and incubated for 2–4 h to allow formazan crystal formation. The formazan crystals were then solubilized by adding DMSO. The absorbance of formazan was measured at 570 nm using a ThermoScientific Evolution 201 UV-VIS spectrophotometer (ThermoFisher Scientific, Waltham, MA, USA). The control condition with 0.5% DMSO was considered 100% viability. The IC50 values for the compounds were determined using GraphPad Prism 8 and 9 software (GraphPad Software, Boston, MA, USA).
(In general: Tetrazolium assays rely on reduction of a dye to a coloured formazan, in cell work by metabolically active cells.)

In assay [2] the test system is HT-29 colorectal adenocarcinoma cells. In words: MTT assay. The class given is cell-based. Conditions: Homo sapiens, HT-29, MTT, M ± SD, n = 3, read-out: IC50. How it is done: as §1, §2
Assay [3] relates to HaCaT (human keratinocytes). Kind of assay: MTT assay. Conditions: 72 h, M ± SD, n = 3. It is filed as cell-based. As for the experimental part: as §1, §2
Assay [4] deals with DLD-1 colorectal adenocarcinoma cells. In words: MTT assay. It is filed as cell-based, human. Conditions: Homo sapiens, DLD-1, MTT, M ± SD, n = 3, read-out: IC50. How it is done:
as §1, §2

The subject of the next assay is Human blood lymphocytes. Kind of assay: MTT assay. The class given is cell-based. Particulars: Lymphocyte, human blood lymphocytes, 72 h, M ± SD, n = 3. How it is done:
Lymphocytes from human peripheral blood were isolated with sodium heparin (10 U/mL) as an anticoagulant. Isolation was performed through a density gradient method with the Gradisol G, following a modified procedure. Peripheral blood was mixed with Gradisol G in equal proportions (1:1) and centrifuged at 400× g for 30 min at room temperature. The cells were collected, washed in phosphate-buffered saline (PBS), and treated with a hypotonic solution to remove residual erythrocytes. Lymphocytes were activated by phytohemagglutinin-L (1 µg/mL) and cultured in RPMI-1640 medium supplemented with 20% fetal bovine serum under controlled conditions of 95% air and 5% CO2 [27].
as §2

Assay [5] relates to DLD-1 colorectal adenocarcinoma cells. Kind of assay: Colony forming (clonogenic) assay. The class given is cell-based, human. How it is done: (§3) For colony forming assay, HT-29 and DLD-1 cells were seeded in 12-well plates at a density of 500 cells in 2 mL of growth medium per well. After overnight incubation, the cells were exposed to the compounds Les-6547, Les-6557, and doxorubicin at concentrations ranging from 0.1 to 100 µM for 72 h. Following treatment, the medium was replaced with fresh medium without the compounds. After 14 days of culture, cells were rinsed with PBS and fixed with cold methanol for 10 min. Subsequently, the cells were stained with a 0.1% crystal violet solution for 10 min. After washing, the plates were allowed to dry at room temperature. Numbers of colonies were quantified using ImageJ software (version 1.5.4; National Institutes of Health, Bethesda, MD, USA). The effect of the compounds on the colony-forming capacity was calculated as a percentage of colonies relative to the untreated control group.

The subject of assay [6] is HT-29 colorectal adenocarcinoma cells. In words: Colony forming (clonogenic) assay. It is filed as cell-based, human. Conditions: Homo sapiens. As for the experimental part:
as §3

In assay [7] the test system is DLD-1 colorectal adenocarcinoma cells. Kind of assay: [^3H]-thymidine incorporation assay (DNA biosynthesis). It is filed as cell-based. Conditions: Homo sapiens; DLD-1, 24 h, M ± SD, n = 3. How it is done: (§4) The anti-proliferative potential of Les-6547 and Les-6557 was analyzed using a clonogenic assay and incorporation of radioactive [^3H]-thymidine into the DNA of colorectal adenocarcinoma HT-29 and DLD-1 cell lines after 24 h of incubation with various concentrations of the tested agents.
(§5) Next, we examined the effects of the tested compounds on the proliferative activity of human colorectal adenocarcinoma cells by assessing their ability to influence DNA biosynthesis using the thymidine incorporation assay (Figure 6, Table 8). Les-6547 decreased DNA biosynthesis in DLD-1 cells to 50% at a concentration of 2.19 ± 0.39 µM.
For orientation: Dividing cells build labelled thymidine or BrdU into new DNA.

The subject of assay [8] is HT-29 colorectal adenocarcinoma cells. The assay is described as above. It is filed as cell-based. Conditions: Homo sapiens; HT-29, 24 h, M ± SD, n = 3. How it is done: as §4, §5

Molecules are shown by their SMILES.

Turning to `COc1cccc2c1C(=O)c1c(O)c3c(c(O)c1C2=O)C[C@@](O)(C(=O)CO)C[C@@H]3O[C@H]1C[C@H](N)[C@H](O)[C@H](C)O1` [Doxorubicin, doxorubicin, reference compound], the IC50 was found to be 560 ± 110 nM in [1]; 17000 ± 880 nM in [2] (24 h); 1550 ± 140 nM in assay [2] (48 h); 2110 ± 60 nM in assay [2] (72 h); 900 ± 100 nM in assay [3]; 65300 ± 6080 nM in assay [4] (24 h). Besides, the IC50 in [4] (48 h) is 2010 ± 90 nM; in assay [4] (72 h), 760 ± 100 nM; in the assay with Human blood lymphocytes it was 710 ± 110 nM; in assay [5] (Homo sapiens, DLD-1, 72 h treatment, 14 days of incubation, M ± SD, n = 3), 3230 ± 50 nM; in [6] (HT-29, 72 h treatment, 14 days of incubation, n = 3), approximately 500 nM; in assay [7], 6390 ± 20 nM. In [8], this compound showed an IC50 of 4720 ± 800 nM. Moreover, the colony growth in assay [5] (DLD-1, 10 µM) was 3.86%. Moreover, in [6] (HT-29, 1 µM, read-out: inhibition of colony formation), the inhibition at 1 µM worked out at 100%.

By IC50 is commonly meant the midpoint of a concentration-inhibition curve. In general, inhibition refers to the drop in the measured response relative to a control, in per cent.

These data come from PMC11941218, “Juglone-Bearing Thiopyrano[2,3-d]thiazoles Induce Apoptosis in Colorectal Adenocarcinoma Cells” (Cells, 2025).
